Test results as given in patent US10478421B1, “Sortilin binding compounds, formulations, and uses thereof” (University of Florida, priority 2016, dated 2019).

How the values were obtained:
LDLR = assay: Cellular LDLR by immunoblot in McA cells; format: cell-based, rat; settings: 10 μM, 18 h, 1% BSA/DMEM
Method: McA cells were incubated in 1% BSA/DMEM with DMSO, 541 (10 μM) or 984 (10 μM) for 18 h. Cellular proteins were extracted and analyzed by IB for LDLR (LS-C146979, 1:2000) (FIG. 5A) or PCSK9 (Ab125251, 1:2000) (FIG. 5B) using HRP-linked secondary antibody and ECL detection. Loading controls included β-ACTIN (Rockland ph600-401-886) and GAPDH (cb1001mAb (6C5). Band intensities were measured using ChemiDocXRS+ system and evaluated using ImageLab 5.1 software (BioRad). Results are average of triplicates ±S.D. PCSK9 is a known ligand for sortilin where sortilin acts as a chaperone for PCSK9 secretion.

human sortilin = biological target: T1, human sortilin (Homo sapiens, UniProt Q99523); assay: Thermophoresis binding to human sortilin
T1 sequence (Q99523 78-831): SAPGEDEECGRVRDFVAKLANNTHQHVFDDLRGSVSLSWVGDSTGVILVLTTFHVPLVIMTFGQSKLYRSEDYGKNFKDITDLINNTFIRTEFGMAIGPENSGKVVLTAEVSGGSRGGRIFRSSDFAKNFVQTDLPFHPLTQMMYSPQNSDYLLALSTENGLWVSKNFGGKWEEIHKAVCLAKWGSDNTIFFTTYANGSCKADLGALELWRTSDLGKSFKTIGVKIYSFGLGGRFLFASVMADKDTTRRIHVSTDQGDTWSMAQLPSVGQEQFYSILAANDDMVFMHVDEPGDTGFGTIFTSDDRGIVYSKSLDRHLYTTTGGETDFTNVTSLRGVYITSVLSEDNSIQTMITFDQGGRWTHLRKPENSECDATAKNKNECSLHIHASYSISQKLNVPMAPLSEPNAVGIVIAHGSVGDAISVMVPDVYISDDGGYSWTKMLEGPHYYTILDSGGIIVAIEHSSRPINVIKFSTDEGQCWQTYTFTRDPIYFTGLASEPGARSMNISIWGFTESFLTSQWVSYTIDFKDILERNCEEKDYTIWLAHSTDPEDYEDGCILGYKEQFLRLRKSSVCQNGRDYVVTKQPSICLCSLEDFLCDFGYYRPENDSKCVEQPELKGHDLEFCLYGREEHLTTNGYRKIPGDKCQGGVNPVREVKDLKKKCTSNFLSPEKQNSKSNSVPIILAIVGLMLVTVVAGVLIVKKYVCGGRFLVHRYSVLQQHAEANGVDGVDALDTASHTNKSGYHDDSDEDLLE
Method: Due to inherent fluorescence of 541 small molecule, thermophoresis was performed in two different buffer conditions (PBS n=3 and MST n=2) and at two sets of concentration ranges. […] SPR indicates a high and low affinity binding site of cpd984 to human sortilin of hsortilin with Kd of about 200 μM and about 20 nM.

hsortilin = biological target: T2, hsortilin (Homo sapiens, UniProt Q99523); assay: Liposome floatation assay of hsortilin binding to PIP3 liposomes; settings: increasing concentrations of cpd984
T2 construct: Human sortilin (hsortilin) (Ser78-Asn755) with C-terminal 6-His tag; purchased R&D Systems, Inc. (Minneapolis, Minn.)
T2 sequence (Q99523 78-755): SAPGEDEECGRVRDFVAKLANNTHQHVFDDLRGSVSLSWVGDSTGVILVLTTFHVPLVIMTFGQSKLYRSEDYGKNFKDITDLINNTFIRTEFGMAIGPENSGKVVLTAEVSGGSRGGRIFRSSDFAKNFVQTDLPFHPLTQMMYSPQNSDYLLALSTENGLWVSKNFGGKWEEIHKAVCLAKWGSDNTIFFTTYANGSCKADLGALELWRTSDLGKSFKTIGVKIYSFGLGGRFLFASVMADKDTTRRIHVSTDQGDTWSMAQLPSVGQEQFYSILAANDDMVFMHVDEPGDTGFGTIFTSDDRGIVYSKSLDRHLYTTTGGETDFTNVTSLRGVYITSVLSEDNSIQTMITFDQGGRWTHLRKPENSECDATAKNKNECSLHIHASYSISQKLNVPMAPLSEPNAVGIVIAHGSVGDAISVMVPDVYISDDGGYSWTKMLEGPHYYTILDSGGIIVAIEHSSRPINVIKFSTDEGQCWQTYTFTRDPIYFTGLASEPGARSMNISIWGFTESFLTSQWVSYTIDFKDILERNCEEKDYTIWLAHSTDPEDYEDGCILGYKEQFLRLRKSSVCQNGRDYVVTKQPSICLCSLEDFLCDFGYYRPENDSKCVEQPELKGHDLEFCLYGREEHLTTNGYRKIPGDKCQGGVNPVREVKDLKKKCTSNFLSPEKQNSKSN
Method: Unilamellar liposomes containing specific lipid compositions were produced using lipids dissolved in chloroform that were mixed according to mole percentages of 2.6 μmoles total phospholipid. Lipids were dried and desiccated overnight followed by incubation with PBS (2.6 ml) for 1 h. Lipids were resuspended by vortexing and disrupted by sonication for 30 min. To measure binding, a liposome floatation assay was used by adding concentrations 50 nM or 100 nM hsortilin to liposomes (150 μl) containing 5% PIP3, 20% PE and 75% PC; 10% PIP3, 20% PE, 70% PC; or 0% PIP3, 80% PC, and 20% PE as described. Samples containing 50 nM or 100 nM protein and liposomes in the presence and absence of cpd984 were incubated for 10 min at 30° C. and 630 μl of 1.65 M sucrose/PBS was added. Samples were overlaid with 630 μl of 0.75 M sucrose/PBS, and PBS to the top of the tube and centrifuged (200,000×g, 90 min, 4° C.), and floated liposomes recovered from the 0.75 M sucrose layer. Liposomes at the interface of the top and second fraction were recovered and diluted in 2 ml of PBS and re-isolated by centrifugation (16,000×g, 20 min, 4° C.). 50 μl PBS and 20 μl 5×SDS sample buffer was added to the final liposome pellet. Bound proteins were resolved by SDS-PAGE and detected by western immunoblotting following transfer to PVDF membranes.

Kd (human sortilin; high affinity binding range): 0.007 µM | Kd (human sortilin; low affinity binding range): 100 to 300 µM
SMILES: CN1CCC[C@H]1C(=O)Nc1cccc(NC(=O)CCc2ccccc2)c1 [cpd984, (2S)-1-methyl-N-{3-[(3-phenylpropanoyl)-amino]phenyl} pyrrolidine-2-carboxamide]
effect on LDL receptors (LDLR): increase in LDL receptors | effect on sortilin binding to PIP3 liposomes (hsortilin): increased sortilin binding to PIP3 liposomes
